Our source for the IC50 values is patent US20140081025A1, “HETEROAROMATIC RING DERIVATIVE” (TAISHO PHARMACEUTICAL CO., LTD., priority 2011, published 2014).

One may read the IC50 as the concentration that gives 50% inhibition.

Each structure is given as a SMILES string.

Test [1] concerns the target T1, human orexin 2 receptor (hOX2R) (Homo sapiens, UniProt O43614).
T1 construct: expressed in transfected cells; host or cells: Chinese hamster ovary (CHO) cells
T1 sequence (O43614 1-444): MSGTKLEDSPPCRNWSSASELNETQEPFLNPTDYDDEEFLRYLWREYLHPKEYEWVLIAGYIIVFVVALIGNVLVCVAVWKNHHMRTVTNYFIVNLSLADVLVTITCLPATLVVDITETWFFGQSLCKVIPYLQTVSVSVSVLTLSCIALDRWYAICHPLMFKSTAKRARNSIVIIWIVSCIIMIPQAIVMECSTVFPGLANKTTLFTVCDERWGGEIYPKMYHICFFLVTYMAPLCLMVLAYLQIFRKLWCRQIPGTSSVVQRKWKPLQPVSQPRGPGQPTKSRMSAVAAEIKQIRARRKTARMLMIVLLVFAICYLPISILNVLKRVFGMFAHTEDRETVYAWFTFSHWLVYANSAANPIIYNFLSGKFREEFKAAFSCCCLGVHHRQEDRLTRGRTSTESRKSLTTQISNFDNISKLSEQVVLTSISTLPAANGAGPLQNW
Put plainly: Measurement of orexin antagonist activity (intracellular Ca2+ fluorescence, FDSS) in CHO cells expressing hOX2R. The conditions noted are these: CHO cells forcibly expressing hOX2R; ligand (two-amino-acid-substituted human orexin-A) 3 nM; Fluo 4-AM; read-out: IC50 value OX2. It is filed as cell-based. As to the method:
(§1) The antagonist activity of a test compound against the human orexin 1 receptor (hOX1R) or orexin 2 receptor (hOX2R) was measured by the method described in the document (Toshikatsu Okumura et al., Biochemical and Biophysical Research Communications, 280, 976-981, 2001) with appropriate modification. Chinese hamster ovary (CHO) cells forcibly expressing hOX1R or hOX2R were seeded into each well of a 96-well Black clear bottom plate (Nunc A/S) in the amount of 20000 cells per well and were cultured in a Ham's F-12 medium (Invitrogen, Inc.) containing 0.1 mM MEM non-essential amino acids (Invitrogen, Inc.), 0.5 mg/mL G418 (Invitrogen, Inc.), and 10% fetal calf serum (Invitrogen, Inc.) at 37° C. in 5% CO2 for 16 hours. The medium was removed, and then added to each well was 100 μL of an assay buffer (pH 7.4) containing 0.5 μM Fluo 4-AM ester (Dojindo Laboratories), wherein the buffer was composed of 25 mM HEPES (Dojindo Laboratories), a Hanks' balanced salt solution (Invitrogen, Inc.), 0.1% bovine serum albumin (Sigma-Aldrich Co., LLC.), 2.5 mM probenecid (Sigma-Aldrich Co., LLC.), and 200 μg/mL Amaranth (Sigma-Aldrich Co., LLC.), followed by incubation at 37° C. in 5% CO2 for 60 min. The assay buffer containing Fluo 4-AM ester was removed, and then 150 μL of an assay buffer solution containing 10 mM of the test compound dissolved in dimethyl sulfoxide was added to each well, followed by incubation for 30 min.
(§2) A peptide (Pyr-[…]NH2: Peptide Institute, Inc.), which is a ligand having substitution of two amino acids in human orexin-A, was diluted with an assay buffer to a final concentration of 300 pM for hOX1R and to a final concentration of 3 nM for hOX2R. The reaction was started by adding 50 μL of this ligand solution to each well. The reaction was monitored by measuring the fluorescence of each well at each 1 second for 3 min with a Functional Drug Screening System (FDSS manufactured by Hamamatsu Photonics K.K.), and the antagonist activity was determined based on the maximum fluorescence value as an index of the intracellular Ca^2+ concentration. The antagonist activity of a test compound was calculated by assuming that the fluorescence value of the well containing only a dilution buffer was 100% and that the fluorescence value of the well containing a buffer not containing the ligand or any test compound was 0%. The 50% inhibitory concentration (IC50 value) of a test compound was determined from fluorescence values at various concentrations of the test compound.

Test [2] has as its target T2, human orexin 1 receptor (hOX1R) (Homo sapiens, UniProt O43613).
T2 construct: expressed in transfected cells; host or cells: Chinese hamster ovary (CHO) cells
T2 sequence (O43613 1-425): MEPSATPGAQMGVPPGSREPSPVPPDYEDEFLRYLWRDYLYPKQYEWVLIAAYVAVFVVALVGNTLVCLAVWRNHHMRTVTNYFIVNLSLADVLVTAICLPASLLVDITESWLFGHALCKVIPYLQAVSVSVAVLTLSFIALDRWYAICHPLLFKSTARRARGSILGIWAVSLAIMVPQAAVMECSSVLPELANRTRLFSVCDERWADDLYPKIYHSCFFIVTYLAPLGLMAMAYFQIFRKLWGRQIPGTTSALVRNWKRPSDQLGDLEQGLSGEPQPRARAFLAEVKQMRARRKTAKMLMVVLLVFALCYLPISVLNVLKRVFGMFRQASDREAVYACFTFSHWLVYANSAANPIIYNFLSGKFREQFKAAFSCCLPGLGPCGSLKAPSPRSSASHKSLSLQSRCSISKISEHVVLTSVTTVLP
As to the kind of experiment: Measurement of orexin antagonist activity (intracellular Ca2+ fluorescence, FDSS) in CHO cells expressing hOX1R. It is filed as cell-based. To be noted: CHO cells forcibly expressing hOX1R; ligand (two-amino-acid-substituted human orexin-A) 300 pM; Fluo 4-AM; read-out: IC50 value OX1. Here is the method:
as §1, §2

With `CCN(CCc1ccn(-c2ccc(F)cc2)n1)C(=O)c1cc(F)ccc1-c1ncccn1` [Example 27, N-ethyl-5-fluoro-N-{2-[1-(4-fluorophenyl)-1H-pyrazol-3-yl]ethyl}-2-(pyrimidin-2-yl) benzamide], the IC50 was found to be 0.0184 µM in test [1] and 0.0011 µM in test [2].
`CN(CCc1noc(-c2ccc(F)cc2)n1)C(=O)c1ccccc1-n1nccn1` [Example 31, N-{2-[5-(4-Fluorophenyl)1,2,4-oxadiazol-3-yl]ethyl}-N-methyl-2-(2H-1,2,3-triazol-2-yl)benzamide]: the values for the concentration for half-maximal inhibition (IC50) in test [1] and in test [2] were 0.114 µM and 0.0116 µM, respectively.
In the case of `CN(CCc1ccn(-c2ccc(F)cn2)n1)C(=O)c1ccccc1-n1nccn1` [Example 14, N-{2-[1-(5-Fluoropyridin-2-yl)-1H-pyrazol-3-yl]ethyl}-N-methyl-2-(2H-1,2,3-triazol-2-yl)benzamide], the figures for the IC50 in test [1] and in test [2] were 0.132 µM and 0.01 µM, respectively.
For the molecule `CCN(CCc1ccn(-c2cc(C(F)(F)F)ccn2)n1)C(=O)c1ccccc1-n1nccn1` [Example 26, N-ethyl-2-(2H-1,2,3-triazol-2-yl)-N-{2-{1-[4-(trifluoromethyl)pyridin-2-yl]-1H-pyrazol-3-yl}ethyl}benzamide], the IC50 in test [1] was 0.38 µM; in test [2], 0.0611 µM.
